Reference: US20200277301A1 (ALFASIGMA S.P.A., priority 2005, published 2020)

Assays:
[1] = Hygroscopicity of the polymorphous forms; assay type: physicochemical; settings: absorb water in a reversible way under suitable pressure and ambient humidity
Text: Both the forms δ and ε of the rifaximin are hygroscopic, they absorb water in a reversible way during the time in the presence of suitable conditions of pressure and humidity in the ambient and are susceptible of transformation to other forms.

in vivo = assay: in vivo; design: species or system Beagle female dogs; settings: female, Beagle, dog, po, 100 mg/kg
Description: Eight pure-bred Beagle females dogs having 20 weeks of age and weighing between 5.0 and 7.5 kg have been divided into two groups of four.
Each sample has been transferred into a tube containing heparin as anticoagulant and has been centrifuged; the plasma has been divided into two aliquots, each of 500 μl, and has been frozen at −20° C.
Tmax=time at which the Cmax is reached;
AUC=area under the concentration-time curve calculated through the linear trapezoidal rule.

Row | hygroscopicity (in words) [1] | AUC0-24 Mean (in vivo) [ng·h/mL] | Cmax Mean (in vivo) [ng/mL] | Tmax Mean (in vivo) [h] | Cmax (in vivo; Cmax) [ng/mL] | Tmax (in vivo) [h] | Compound
1 | hygroscopic | 801 | 308.31 | 2 | 308 |  | CO[C@H]1/C=C/O[C@@]2(C)Oc3c(C)c(O)c4c(O)c(c5c(nc6cc(C)ccn65)c4c3C2=O)NC(=O)/C(C)=C\C=C\[C@H](C)[C@H](O)[C@@H](C)[C@@H](O)[C@@H](C)[C@H](OC(C)=O)[C@@H]1C [Polymorph δ, rifaximin]
2 | hygroscopic | 42 | 6.86 |  |  | 4 | CO[C@H]1/C=C/O[C@@]2(C)Oc3c(C)c(O)c4c(O)c(c5c(nc6cc(C)ccn65)c4c3C2=O)NC(=O)/C(C)=C\C=C\[C@H](C)[C@H](O)[C@@H](C)[C@@H](O)[C@@H](C)[C@H](OC(C)=O)[C@@H]1C [Polymorph ε, rifaximin]
